Like-named read-outs stand apart in the source and are kept apart here.
Test: phase 1 first-in-human trial, single ascending dose (SAD) PK
Assay type: in vivo
Settings: for fold increase in AUC / fold increase in Cmax: SAD; for Tmax / AUC(0-t) / Cmax / half-life: human, plasma; for Cmax: read-out: Cmax (geometric mean); for half-life: read-out: T1/2 (geometric mean) (converted)
Protocol: Anle138b was studied in a single-centre, double-blind, randomised, placebo-controlled single ascending dose (SAD) and multiple ascending dose (MAD) study in healthy subjects. Eligible participants were randomly assigned (1:1 for sentinel subjects and 1:5 for main group) to placebo or anle138b (dose ranging from 50 mg to 300 mg per day), respectively. In addition, the effect of food on the pharmacokinetics (PK) of anle138b in healthy subjects was examined at doses of 150 mg per day (FES, food effect study). Participants were randomized to treatment sequence (fed→fasted) or (fasted→fed). Treatment for the SAD, MAD and FES arms of the study was administered orally in hard gelatin capsules containing either 10 mg or 30 mg of anle138b with excipient (i.e., lauroyl polyoxyl-32 glycerides) or excipient only. The primary endpoints were safety and tolerability, the secondary endpoint was pharmacokinetics. Data from all randomized individuals were evaluated. [Clinicaltrials.gov-identifier: NCT04208152. EudraCT-number: 2019-004218-33]
Study design: A single-centre, double-blind, randomised, placebo-controlled single ascending dose (SAD) and multiple ascending dose (MAD) study of anle138b in doses of up to 300 mg per day in healthy subjects. The effect of food (FES) on the PK of anle138b in healthy subjects was examined using doses of 150 mg. Participants were recruited from Quotient Sciences (the “CRO”, Nottingham, UK) volunteer database. Approvals from the ethical review board and from the Medicines and Healthcare products Regulatory Agency (UK) were obtained. This study was conducted in accordance with the protocol and with the following legislation: The updated version of the international Council for Harmonisation Good Clinical Practice (GCP) including the integrated Addendum E6, the Medicines for Human Use (Clinical Trials) Regulations including amendments No. 1928, 2984 and 941. In addition, the study was performed according to the ethical principles outlined in the World Medical Association Declaration of Helsinki and its amendments. The study data was monitored. An independent study monitor was appointed to verify that the study was conducted in accordance with current GCP, regulatory requirements, the protocol and that the data were authentic, accurate and complete.
In SAD, subjects received a single dose of anle138b or placebo after fasting from all food and drink (except water) for a minimum of 8 h prior to dosing. The dosing in the four SAD-cohorts were 50 mg, 100 mg, 200 mg and 300 mg of free anle138b equivalent, QD, cohorts A, B, C and D respectively. In the MAD part, participants received anle138b or placebo once daily (QD) for 7 days after fasting from all food and drink (except water) for a minimum of 8 h prior to dosing. The dosing in the three MAD-cohorts was 100 mg, 200 mg and 300 mg of free anle138b equivalent, cohorts AM, BM and CM, respectively. Post dosing mouth and hand checks were conducted to ensure the capsules were swallowed. In-study decisions were made by the safety advisory committee (SAC) comprising the principal investigator, the sponsor's medical monitor and a PK expert. For dose escalation to proceed, data needed to be available from a minimum of 6 subjects per cohort with completed per protocol safety and PK assessments up to 48 h after dosing to ensure at least 4 subjects had received active IMP. The decision to proceed to the next higher dose level was based on safety, tolerability and available PK data to 48 h post-administration. The following data were analyzed: Adverse events, vital signs, safety laboratory, ECG, physical examinations, plasma concentrations of anle138b with interim PK parameter estimations (Tmax, Cmax, AUC0-24, AUC0-tau, AUC0-last and T½, where applicable). Data were provided to the SAC in accordance with CRO standard operating procedure (SOP) on interim dose decision-making and dose escalation. […]

[1] = 1.5-fold increase in dose from 200 mg to 300 mg
[2] = 2-fold increase in dose from 50 mg to 100 mg
[3] = 2-fold increase in dose from 100 mg to 200 mg
[4] = po, 50 mg, healthy volunteers, fasted, single oral 50 mg
[5] = po, 100 mg, healthy volunteers, fasted, single oral 100 mg
[6] = po, 200 mg, healthy volunteers, fasted, single oral 200 mg
[7] = po, 300 mg, healthy volunteers, fasted, single oral 300 mg

Brc1cccc(-c2cc(-c3ccc4c(c3)OCO4)n[nH]2)c1 [anle138b, 3-(1,3-benzodioxol-5-yl)-5-(3-bromophenyl)-1H-pyrazole]
fold increase in AUC [1]: ~1.5 fold | fold increase in Cmax [1]: ~1.5 fold | fold increase in AUC [2]: ~3.3 fold | fold increase in Cmax [2]: ~2.9 fold | fold increase in AUC [3]: ~3.0 fold | fold increase in Cmax [3]: ~2.9 fold | practical terminal elimination half-time (healthy volunteers, overall): ~12 h | Tmax (oral, healthy volunteers, single dose 50-300 mg, post-administration, read-out: median Tmax, all SAD cohorts): 1 to 1.5 h | Tmax (po, 50 mg, healthy volunteers, fasted, single oral 50 mg (Cohort A), read-out: Tmax (median)): 1 h | Tmax (po, 50 mg, healthy volunteers, fasted, single oral 50 mg (Cohort A), read-out: Tmax (range)): 0.5 to 2 h | AUC(0-t) (po, 50 mg, healthy volunteers, fasted, single oral 50 mg, read-out: AUC(0-24) (geometric mean)): ~113 ng·h/mL | AUC(0-t) (po, 50 mg, healthy volunteers, fasted, single oral 50 mg, read-out: AUC(0-last) (geometric mean)): 109 ng·h/mL | Cmax [4]: ~54.3 ng/mL | half-life [4]: 234 min | Tmax (po, 100 mg, healthy volunteers, fasted, single oral 100 mg (Cohort B), read-out: Tmax (median)): 1.5 h | Tmax (po, 100 mg, healthy volunteers, fasted, single oral 100 mg (Cohort B), read-out: Tmax (range)): 0.5 to 2 h | AUC(0-t) (po, 100 mg, healthy volunteers, fasted, single oral 100 mg, read-out: AUC(0-24) (geometric mean)): > 300 ng·h/mL | AUC(0-t) (po, 100 mg, healthy volunteers, fasted, single oral 100 mg, read-out: AUC(0-last) (geometric mean)): 372 ng·h/mL | Cmax [5]: ~156 ng/mL | half-life [5]: 648 min | Tmax (po, 200 mg, healthy volunteers, fasted, single oral 200 mg (Cohort C), read-out: Tmax (median)): 1.5 h | Tmax (po, 200 mg, healthy volunteers, fasted, single oral 200 mg (Cohort C), read-out: Tmax (range)): 1 to 2 h | AUC(0-t) (po, 200 mg, healthy volunteers, fasted, single oral 200 mg, read-out: AUC(0-24) (geometric mean)): ~1090 ng·h/mL | AUC(0-t) (po, 200 mg, healthy volunteers, fasted, single oral 200 mg, read-out: AUC(0-last) (geometric mean)): 1130 ng·h/mL | Cmax [6]: ~458 ng/mL | half-life [6]: 768 min | Tmax (po, 300 mg, healthy volunteers, fasted, single oral 300 mg (Cohort D), read-out: Tmax (median)): 1.5 h | Tmax (po, 300 mg, healthy volunteers, fasted, single oral 300 mg (Cohort D), read-out: Tmax (range)): 1.5 to 2 h | AUC(0-t) (po, 300 mg, healthy volunteers, fasted, single oral 300 mg, read-out: AUC(0-24) (geometric mean)): ~1650 ng·h/mL | AUC(0-t) (po, 300 mg, healthy volunteers, fasted, single oral 300 mg, read-out: AUC(0-last) (geometric mean)): 1720 ng·h/mL | Cmax [7]: ~704 ng/mL | half-life [7]: 972 min

Reference: US20250161273A1, “PHARMACEUTICAL COMPOSITION COMPRISING DIPHENYLDIAZOLE DERIVATIVES AND METHODS OF USE” (MODAG GMBH, priority 2022, published 2025)
